Values after ≈ are worked out from the molar mass of the structure shown.
Legend:
[1] = tested on: Staphylococcus aureus; assay: Antibacterial activity against Staphylococcus aureus ATCC 25923 assessed as effect on planktonic growth at 0.34 ug/ml after 20 hrs relative to control; format: functional
[2] = tested on: Staphylococcus epidermidis; assay: Antibacterial activity against Staphylococcus epidermidis ATCC 35547 assessed as effect on planktonic growth at 1.37 ug/ml after 20 hrs relative to control; format: functional
[3] = tested on: Staphylococcus aureus; assay: Antibacterial activity against Staphylococcus aureus ATCC 25923 assessed as effect on planktonic growth at 0.17 ug/ml after 20 hrs relative to control; format: functional
[4] = tested on: Pseudomonas aeruginosa; assay: Antibacterial activity against Pseudomonas aeruginosa ATCC 27853 assessed as effect on planktonic growth at 0.17 ug/ml after 20 hrs relative to control; format: functional
[5] = tested on: Staphylococcus epidermidis; assay: Antibacterial activity against Staphylococcus epidermidis ATCC 35547 assessed as effect on planktonic growth at 2.73 ug/ml after 20 hrs relative to control; format: functional
[6] = tested on: Staphylococcus aureus; assay: Antibacterial activity against Staphylococcus aureus ATCC 25923 assessed as effect on planktonic growth at 21.9 ug/ml after 20 hrs relative to control; format: functional
[7] = tested on: Staphylococcus epidermidis; assay: Antibacterial activity against Staphylococcus epidermidis ATCC 35547 assessed as effect on planktonic growth at 10.9 ug/ml after 20 hrs relative to control; format: functional
[8] = tested on: Staphylococcus epidermidis; assay: Antibacterial activity against Staphylococcus epidermidis ATCC 35547 assessed as effect on planktonic growth at 21.9 ug/ml after 20 hrs relative to control; format: functional
[9] = tested on: Pseudomonas aeruginosa; assay: Antibacterial activity against Pseudomonas aeruginosa ATCC 27853 assessed as effect on planktonic growth at 5.5 ug/ml after 20 hrs relative to control; format: functional
[10] = tested on: Staphylococcus aureus; assay: Antibacterial activity against Staphylococcus aureus ATCC 25923 assessed as effect on planktonic growth at 2.73 ug/ml after 20 hrs relative to control; format: functional
[11] = tested on: Staphylococcus epidermidis; assay: Antibacterial activity against Staphylococcus epidermidis ATCC 35547 assessed as effect on planktonic growth at 5.5 ug/ml after 20 hrs relative to control; format: functional
[12] = tested on: Streptococcus mutans; assay: Antibacterial activity against Streptococcus mutans ATCC 25175 assessed as effect on planktonic growth at 0.34 ug/ml after 20 hrs relative to control; format: functional
[13] = tested on: Staphylococcus epidermidis; assay: Antibacterial activity against Staphylococcus epidermidis ATCC 35547 assessed as effect on planktonic growth at 0.68 ug/ml after 20 hrs relative to control; format: functional
[14] = tested on: Pseudomonas aeruginosa; assay: Antibacterial activity against Pseudomonas aeruginosa ATCC 27853 assessed as effect on planktonic growth at 87.5 ug/ml after 20 hrs relative to control; format: functional
[15] = tested on: Pseudomonas aeruginosa; assay: Antibacterial activity against Pseudomonas aeruginosa ATCC 27853 assessed as effect on planktonic growth at 0.34 ug/ml after 20 hrs relative to control; format: functional
[16] = tested on: Streptococcus mutans; assay: Antibacterial activity against Streptococcus mutans ATCC 25175 assessed as effect on planktonic growth at 5.5 ug/ml after 20 hrs relative to control; format: functional
[17] = tested on: Streptococcus mutans; assay: Antibacterial activity against Streptococcus mutans ATCC 25175 assessed as effect on planktonic growth at 21.9 ug/ml after 20 hrs relative to control; format: functional
[18] = tested on: Streptococcus mutans; assay: Antibacterial activity against Streptococcus mutans ATCC 25175 assessed as effect on planktonic growth at 0.68 ug/ml after 20 hrs relative to control; format: functional
[19] = tested on: Staphylococcus epidermidis; assay: Antibacterial activity against Staphylococcus epidermidis ATCC 35547 assessed as effect on planktonic growth at 0.17 ug/ml after 20 hrs relative to control; format: functional
[20] = tested on: Streptococcus mutans; assay: Antibacterial activity against Streptococcus mutans ATCC 25175 assessed as effect on planktonic growth at 87.5 ug/ml after 20 hrs relative to control; format: functional
[21] = tested on: Streptococcus mutans; assay: Antibacterial activity against Streptococcus mutans ATCC 25175 assessed as effect on planktonic growth at 10.9 ug/ml after 20 hrs relative to control; format: functional
[22] = tested on: Streptococcus mutans; assay: Antibacterial activity against Streptococcus mutans ATCC 25175 assessed as effect on planktonic growth at 43.8 ug/ml after 20 hrs relative to control; format: functional
[23] = tested on: Staphylococcus aureus; assay: Antibacterial activity against Staphylococcus aureus ATCC 25923 assessed as effect on planktonic growth at 0.68 ug/ml after 20 hrs relative to control; format: functional
[24] = tested on: Staphylococcus aureus; assay: Antibacterial activity against Staphylococcus aureus ATCC 25923 assessed as effect on planktonic growth at 10.9 ug/ml after 20 hrs relative to control; format: functional
[25] = tested on: Staphylococcus aureus; assay: Antibacterial activity against Staphylococcus aureus ATCC 25923 assessed as effect on planktonic growth at 43.8 ug/ml after 20 hrs relative to control; format: functional
[26] = tested on: Streptococcus mutans; assay: Antibacterial activity against Streptococcus mutans ATCC 25175 assessed as effect on planktonic growth at 0.17 ug/ml after 20 hrs relative to control; format: functional
[27] = tested on: Staphylococcus aureus; assay: Antibacterial activity against Staphylococcus aureus ATCC 25923 assessed as effect on planktonic growth at 5.5 ug/ml after 20 hrs relative to control; format: functional
[28] = tested on: Pseudomonas aeruginosa; assay: Antibacterial activity against Pseudomonas aeruginosa ATCC 27853 assessed as effect on planktonic growth at 1.37 ug/ml after 20 hrs relative to control; format: functional
[29] = tested on: Staphylococcus epidermidis; assay: Antibacterial activity against Staphylococcus epidermidis ATCC 35547 assessed as effect on planktonic growth at 87.5 ug/ml after 20 hrs relative to control; format: functional
[30] = tested on: Pseudomonas aeruginosa; assay: Antibacterial activity against Pseudomonas aeruginosa ATCC 27853 assessed as effect on planktonic growth at 10.9 ug/ml after 20 hrs relative to control; format: functional
[31] = tested on: Streptococcus mutans; assay: Antibacterial activity against Streptococcus mutans ATCC 25175 assessed as effect on planktonic growth at 1.37 ug/ml after 20 hrs relative to control; format: functional
[32] = tested on: Streptococcus mutans; assay: Antibacterial activity against Streptococcus mutans ATCC 25175 assessed as effect on planktonic growth at 2.73 ug/ml after 20 hrs relative to control; format: functional
[33] = tested on: Pseudomonas aeruginosa; assay: Antibacterial activity against Pseudomonas aeruginosa ATCC 27853 assessed as effect on planktonic growth at 21.9 ug/ml after 20 hrs relative to control; format: functional
[34] = tested on: Pseudomonas aeruginosa; assay: Antibacterial activity against Pseudomonas aeruginosa ATCC 27853 assessed as effect on planktonic growth at 0.68 ug/ml after 20 hrs relative to control; format: functional
[35] = tested on: Pseudomonas aeruginosa; assay: Antibacterial activity against Pseudomonas aeruginosa ATCC 27853 assessed as inhibition of biofilm formation after 20 hrs by crystal-violet staining method; format: functional, organism-based; conditions: for IC50: ATCC 27853, 20 h
[36] = tested on: Staphylococcus epidermidis; assay: Antibacterial activity against Staphylococcus epidermidis ATCC 35547 assessed as effect on planktonic growth at 43.8 ug/ml after 20 hrs relative to control; format: functional
[37] = tested on: Staphylococcus epidermidis; assay: Antibacterial activity against Staphylococcus epidermidis ATCC 35547 assessed as inhibition of biofilm formation after 20 hrs by crystal-violet staining method; format: functional, organism-based; conditions: for IC50: ATCC 35547, 20 h
[38] = tested on: Pseudomonas aeruginosa; assay: Antibacterial activity against Pseudomonas aeruginosa ATCC 27853 assessed as effect on planktonic growth at 43.8 ug/ml after 20 hrs relative to control; format: functional
[39] = tested on: Staphylococcus aureus; assay: Antibacterial activity against Staphylococcus aureus ATCC 25923 assessed as effect on planktonic growth at 1.37 ug/ml after 20 hrs relative to control; format: functional
[40] = tested on: Pseudomonas aeruginosa; assay: Antibacterial activity against Pseudomonas aeruginosa ATCC 27853 assessed as effect on planktonic growth at 2.73 ug/ml after 20 hrs relative to control; format: functional
[41] = tested on: Staphylococcus epidermidis; assay: Antibacterial activity against Staphylococcus epidermidis ATCC 35547 assessed as effect on planktonic growth at 0.34 ug/ml after 20 hrs relative to control; format: functional
[42] = tested on: Staphylococcus aureus; assay: Antibacterial activity against Staphylococcus aureus ATCC 25923 assessed as effect on planktonic growth at 87.5 ug/ml after 20 hrs relative to control; format: functional

SMILES: COc1ccc(Cl)cc1C1=C(Br)C(=O)O/C1=C\c1ccccc1Br
- Activity [1]: -10%
- Activity [2]: 2.5%
- Activity [3]: -7.9%
- Activity [4]: -3.8%
- Activity [5]: 2.9%
- Activity [6]: -8.3%
- Activity [7]: 12.1%
- Activity [8]: 27.3%
- Activity [9]: -8.1%
- Activity [10]: -14.4%
- Activity [11]: 3.9%
- Activity [12]: 5.6%
- Activity [13]: 11.1%
- Activity [14]: -8.2%
- Activity [15]: -5.3%
- Activity [16]: 8.6%
- Activity [17]: 22.8%
- Activity [18]: 5.6%
- Activity [19]: 9.5%
- Activity [20]: 57.5%
- Activity [21]: 8.2%
- Activity [22]: 26.9%
- Activity [23]: -10.6%
- Activity [24]: -16.9%
- Activity [25]: -2.9%
- Activity [26]: 19%
- Activity [27]: -16.7%
- Activity [28]: -7%
- Activity [29]: 74.6%
- Activity [30]: -5.2%
- Activity [31]: 4.5%
- Activity [32]: 4.1%
- Activity [33]: -13.4%
- Activity [34]: -5.1%
- inhibition [35]: Dose-dependent effect
- IC50 [35]: 3.9 µg/mL (≈ 8.29 µM)
- Activity [36]: 42.5%
- inhibition [37]: Dose-dependent effect
- IC50 [37]: 48 µg/mL (≈ 102 µM)
- Activity [38]: -9.1%
- Activity [39]: -14%
- Activity [40]: -7.7%
- Activity [41]: 51.8%
- Activity [42]: 14.6%

SMILES: COc1cccc(/C=C2\OC(=O)C(Br)=C2c2cc(Cl)ccc2OC)c1
- Activity [1]: 30.5%
- Activity [2]: -4.7%
- Activity [3]: 10.3%
- Activity [4]: -1.2%
- Activity [5]: -2.4%
- Activity [6]: 47.2%
- Activity [7]: -5.5%
- Activity [8]: -1.3%
- Activity [9]: -19.4%
- Activity [10]: 39.5%
- Activity [11]: -4.6%
- Activity [12]: 25.7%
- Activity [13]: -1.5%
- Activity [14]: -9.5%
- Activity [15]: 0.5%
- Activity [16]: 19.7%
- Activity [17]: 14%
- Activity [18]: 23.9%
- Activity [19]: 3.7%
- Activity [20]: 49%
- Activity [21]: 18.8%
- Activity [22]: 22.7%
- Activity [23]: 47.2%
- Activity [24]: 43.1%
- Activity [25]: 80.5%
- Activity [26]: 26.9%
- Activity [27]: 34.4%
- Activity [28]: -7.3%
- Activity [29]: 10.6%
- Activity [30]: -14.8%
- Activity [31]: 34.3%
- Activity [32]: 37.3%
- Activity [33]: -11.6%
- Activity [34]: 0.7%
- inhibition [35]: Dose-dependent effect
- IC50 [35]: 1.7 µg/mL (≈ 4.03 µM)
- Activity [36]: 5.6%
- inhibition [37]: Dose-dependent effect
- IC50 [37]: > 87.5 µg/mL
- Activity [38]: -8.7%
- Activity [39]: 52.1%
- Activity [40]: -16%
- Activity [41]: 0.1%
- Activity [42]: 134.6%

— ChEMBL document CHEMBL3112480, “γ-Alkylidene-γ-lactones and isobutylpyrrol-2(5H)-ones analogues to rubrolides as inhibitors of biofilm formation by gram-positive and gram-negative bacteria” (Bioorg Med Chem Lett, 2014)
